We go through three molecules from patent publication US8802137B2, “Sustained release of antiinfectives” (Insmed Incorporated, priority 2002, dated 2014).

In one data set the test system is P. aeruginosa PA01. As to the kind of experiment: In vitro release and activity in Slide-A-Lyzer cartridges, CFU after 24 hrs. In kind it is cell-based. Particulars: amikacin 50 μg/mL, preliminary experiments. The protocol:
An in vitro test of release and activity was performed under conditions similar to the pharmacokinetics in the lung, where it has been previously shown that free antibiotic is cleared on the time scale of a few hours. […] Free drug dialyzes out of the cartridges on the time scale of hours under these conditions. After 24 hrs., the samples were withdrawn from the cartridges and plated to measure CFU.

A further data set deals with rat alveolar macrophages. Particulars: in vivo.
A short description of data set [1]: Bioavailability of amikacin from inhaled liposomal amikacin formulations: lung homogenate levels. Particulars: CD IGS, rat, in vivo, 5 mg/kg.
Data set [2] is described as follows: Clinical chemical assay (TDX) of aminoglycoside content in tissue of treated infected rats. The data set is classed as in vivo. Particulars: Sprague-Dawley, other: intratracheal (IT), 10 mg/rat. The protocol: […] The clinical chemical assay was performed using a TDX instrument while the bioassay was performed by measuring inhibition zones on agar plates embedded with Bacillus subtilis.

On the set-up of data set [3]: species or system rats. Particulars: rat, in vivo. Here is the method: The binding of aminoglycosides to sputum of CF patients is a concern, particularly if this binding reduces the bioactivity of the antiinfective (Hunt et al., 1995). To determine whether liposomal formulations of amikacin can retain biological activity over a prolonged period of time, normal rats were administered liposomal formulations of amikacin by intratracheal instillation. This was followed by its removal at 2 or 24 hours via a bronchial alveolar lavage (BAL) to determine biological activity. […] Amikacin concentration was determined employing a TDX instrument and biological activity determined using a Mueller Hinton broth dilution assay (Pseudomonas aeruginosa).

For data set [4] the following is noted: mouse, in vivo, po, 15 mg/kg.
[5] abbreviates: lung homogenate, homogenized rat lungs following the 14 day experiment, read-out: Clinical Assay.

The structures appear in SMILES notation. Like-named read-outs stand apart in the source and are kept apart here.

Description for rat alveolar macrophages: The basal and stimulated functions of rat alveolar macrophages obtained by lavage were studied with and without administration of liposomal amikacin formulations and compared to various controls.

Turning to `NCC[C@H](O)C(=O)N[C@@H]1C[C@H](N)[C@@H](O[C@H]2O[C@H](CN)[C@@H](O)[C@H](O)[C@H]2O)[C@H](O)[C@H]1O[C@H]1O[C@H](CO)[C@@H](O)[C@H](N)[C@H]1O` [Free amikacin, amikacin], in the data set with P. aeruginosa PA01, the “reduction of CFUs” value is listed as “only slightly reduced the CFU”. In addition, the “inflammatory response in the lungs (nitrates and TNF-α in BALF)” value with rat alveolar macrophages was “did not produce a significant acute or delayed inflammatory response”. In data set [1], this molecule came in with a concentration at 24 h of approximately 500000 ng/g. Besides, in data set [2] (setting [5]), the concentration at 14 day amounted to 2000 ng/mL.

`NC[C@H]1O[C@H](O[C@H]2[C@H](O)[C@@H](O[C@H]3O[C@H](CO)[C@@H](O)[C@H](N)[C@H]3O)[C@H](N)C[C@@H]2N)[C@H](N)C[C@@H]1O` [Free tobramycin, tobramycin]: in data set [3], the “drug in a BAL” value is recorded as “undetectable”. The concentration at 14 day in data set [2] (setting [5]) is 1400 ng/mL; in data set [2] (rat, kidney, kidneys, following the 14 day experiment, read-out: detectable levels of aminoglycoside in the kidneys), 100 ng/mL.

Take `O=C(O)c1cn(C2CC2)c2cc(N3CCNCC3)c(F)cc2c1=O` [free ciprofloxacin, ciprofloxacin]: the “detectability of drug in the lung over time” value in data set [4] was “undetectable in less than two hours”.
